Experimental data: ChEMBL document CHEMBL1138241, “First gallamine-tacrine hybrid: design and characterization at cholinesterases and the M2 muscarinic receptor” (J Med Chem, 2007)

Key:
Acetylcholinesterase [1] = target: Acetylcholinesterase (Torpedo californica, UniProt P04058)
Description: Inhibition of Torpedo californica Acetylcholinesterase

[2] = target: T1, Muscarinic acetylcholine receptor M2 (Sus scrofa, UniProt P06199)
T1 sequence (P06199 whole entry): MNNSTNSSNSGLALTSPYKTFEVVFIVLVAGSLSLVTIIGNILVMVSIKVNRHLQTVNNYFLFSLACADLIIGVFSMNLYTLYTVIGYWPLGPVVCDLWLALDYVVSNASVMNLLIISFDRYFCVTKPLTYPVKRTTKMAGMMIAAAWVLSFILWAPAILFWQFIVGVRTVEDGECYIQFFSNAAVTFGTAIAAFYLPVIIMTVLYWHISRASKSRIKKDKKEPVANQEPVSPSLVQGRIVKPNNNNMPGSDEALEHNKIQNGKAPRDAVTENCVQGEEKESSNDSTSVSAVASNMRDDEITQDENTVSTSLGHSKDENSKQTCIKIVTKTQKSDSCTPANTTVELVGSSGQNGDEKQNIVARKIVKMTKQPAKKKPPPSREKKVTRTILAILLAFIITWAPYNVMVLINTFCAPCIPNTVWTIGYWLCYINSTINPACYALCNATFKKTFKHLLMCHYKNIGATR
Description: Inhibition of [3H]NMS dissociation from porcine muscarinic M2 receptor

Acetylcholinesterase [3] = target: Acetylcholinesterase (Electrophorus electricus, UniProt O42275)
Chain of Acetylcholinesterase (Electrophorus electricus, UniProt O42275) (O42275 whole entry): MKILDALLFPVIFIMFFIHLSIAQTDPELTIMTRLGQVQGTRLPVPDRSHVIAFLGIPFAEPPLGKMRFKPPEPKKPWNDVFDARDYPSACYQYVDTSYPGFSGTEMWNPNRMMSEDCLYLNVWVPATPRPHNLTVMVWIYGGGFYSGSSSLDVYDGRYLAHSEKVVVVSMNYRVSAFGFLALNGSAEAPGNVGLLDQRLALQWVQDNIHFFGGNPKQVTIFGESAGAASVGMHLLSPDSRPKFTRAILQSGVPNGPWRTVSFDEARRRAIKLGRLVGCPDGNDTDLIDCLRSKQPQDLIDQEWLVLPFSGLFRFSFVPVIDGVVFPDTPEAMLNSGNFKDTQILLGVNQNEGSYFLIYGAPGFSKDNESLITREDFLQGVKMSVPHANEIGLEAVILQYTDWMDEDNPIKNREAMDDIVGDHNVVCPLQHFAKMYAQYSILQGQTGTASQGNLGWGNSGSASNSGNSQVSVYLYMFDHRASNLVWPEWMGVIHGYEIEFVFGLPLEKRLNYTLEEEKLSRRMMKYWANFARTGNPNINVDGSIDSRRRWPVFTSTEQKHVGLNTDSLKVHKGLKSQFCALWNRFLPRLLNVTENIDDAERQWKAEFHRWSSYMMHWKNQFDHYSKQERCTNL
Description: Inhibition of Electrophorus electricus Acetylcholinesterase

Acetylcholinesterase [4] = target: Acetylcholinesterase (Homo sapiens, UniProt P22303)
Chain of Acetylcholinesterase (Homo sapiens, UniProt P22303) (P22303 whole entry): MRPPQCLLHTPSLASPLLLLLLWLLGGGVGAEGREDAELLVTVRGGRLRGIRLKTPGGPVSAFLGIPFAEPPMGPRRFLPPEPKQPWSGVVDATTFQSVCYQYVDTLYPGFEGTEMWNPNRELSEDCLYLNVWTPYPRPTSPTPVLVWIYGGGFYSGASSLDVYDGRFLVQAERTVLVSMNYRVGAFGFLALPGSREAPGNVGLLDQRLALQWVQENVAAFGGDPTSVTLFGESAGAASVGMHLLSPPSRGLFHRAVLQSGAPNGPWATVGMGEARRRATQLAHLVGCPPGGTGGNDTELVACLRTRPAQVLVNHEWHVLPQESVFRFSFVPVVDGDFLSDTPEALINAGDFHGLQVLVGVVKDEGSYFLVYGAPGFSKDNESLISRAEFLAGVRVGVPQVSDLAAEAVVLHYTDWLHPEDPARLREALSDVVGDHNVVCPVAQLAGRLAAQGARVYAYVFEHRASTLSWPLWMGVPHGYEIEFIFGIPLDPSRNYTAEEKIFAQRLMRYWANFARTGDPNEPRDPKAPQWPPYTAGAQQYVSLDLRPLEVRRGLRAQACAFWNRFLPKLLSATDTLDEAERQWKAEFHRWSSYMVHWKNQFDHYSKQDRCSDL
Description: Inhibition of human Acetylcholinesterase

Chain of Acetylcholinesterase (Torpedo californica, UniProt P04058) (P04058 whole entry): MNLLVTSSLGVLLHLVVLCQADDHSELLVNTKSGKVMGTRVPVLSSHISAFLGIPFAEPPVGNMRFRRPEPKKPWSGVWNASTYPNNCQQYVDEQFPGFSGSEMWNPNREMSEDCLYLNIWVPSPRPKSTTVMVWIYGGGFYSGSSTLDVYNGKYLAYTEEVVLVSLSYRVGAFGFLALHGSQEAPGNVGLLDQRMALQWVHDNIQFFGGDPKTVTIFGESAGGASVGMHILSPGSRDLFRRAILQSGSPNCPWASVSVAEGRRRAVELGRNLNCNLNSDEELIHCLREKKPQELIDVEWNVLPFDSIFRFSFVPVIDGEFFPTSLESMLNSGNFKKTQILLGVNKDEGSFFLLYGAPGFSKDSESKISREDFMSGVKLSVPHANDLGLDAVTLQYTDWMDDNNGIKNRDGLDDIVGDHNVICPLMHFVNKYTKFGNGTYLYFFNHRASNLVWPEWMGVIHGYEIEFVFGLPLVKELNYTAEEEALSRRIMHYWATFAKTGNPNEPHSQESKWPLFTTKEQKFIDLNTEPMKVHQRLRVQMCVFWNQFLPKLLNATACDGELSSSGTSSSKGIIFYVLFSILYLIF

Compound	IC50 (Acetylcholinesterase [1]) [µM]	EC50 [2] [µM]	IC50 (Acetylcholinesterase [3]) [µM]	IC50 (Acetylcholinesterase [4]) [µM]
CC[N+](CC)(CC)CCOc1cc(OCC[N+](CC)(CC)CC)c(C(=O)NCCCCCC(=O)NNc2c3c(nc4ccccc24)CCCC3)cc1OCC[N+](CC)(CC)CC	0.0277	0.0014	–	–
CC[N+](CC)(CC)CCOc1ccc(C(=O)NCCCCCC(=O)NNc2c3c(nc4ccccc24)CCCC3)cc1	0.0176	0.0013	0.000467	0.00761
CC[N+](CC)(CC)CCOc1cc(OCC[N+](CC)(CC)CC)cc(C(=O)NCCCCCC(=O)NNc2c3c(nc4ccccc24)CCCC3)c1	0.00859	0.0009	0.00128	0.0158
CC[N+](CC)(CC)CCOc1ccc(C(=O)NCCCCCC(=O)NNc2c3c(nc4cc(Cl)ccc24)CCCC3)cc1	0.127	0.005	0.026	0.00544
CC[N+](CC)(CC)CCOc1cc(OCC[N+](CC)(CC)CC)cc(C(=O)NCCCCCC(=O)NNc2c3c(nc4cc(Cl)ccc24)CCCC3)c1	0.301	0.0015	0.048	0.00675
CC[N+](CC)(CC)CCOc1cc(OCC[N+](CC)(CC)CC)c(C(=O)NCCCCCC(=O)NNc2c3c(nc4cc(Cl)ccc24)CCCC3)cc1OCC[N+](CC)(CC)CC	0.334	0.001	0.09	0.00654
CC[N+](CC)(CC)CCOc1cccc(OCC[N+](CC)(CC)CC)c1OCC[N+](CC)(CC)CC [GALLAMINE]	–	0.13	3150	2110
